{"source": "paper PMC1968247", "about": "(British Journal of Cancer, 1993)", "key": {"MAC 13 tumours": {"test_system": "MAC 13 tumours", "test": "Anti-tumour activity against MAC 13 (tumour weight)", "format": "in vivo, NMRI mice", "protocol": "(§1) Br. J. Cancer (1993), 67, 441 446 t? […] Bibby Clinical Oncology Unit, University of Bradford, West Yorkshire, BD7 JDP, UK. […] In vivo anti-tumour activity was examined against three transplantable adenocarcinomas of the mouse colon and in vivo bone marrow toxicity was assessed using a spleen colony forming unit assay. The pharmacokinetic behaviour of the drug in vivo and drug stability in vitro was analysed by gas chromatography with electron capture detection. […] Clinical responses to cytotoxic agents have been largely restricted to the haematological malignancies while the majority of human solid tumours have remained refractory to chemotherapy (Marsoni et al., 1987). […] However, their clinical usefulness has been limited by non-selective host toxicity, particularly myelosuppres- sion. The chloroethylnitrosoureas decompose spontaneously in aqueous solution to generate reactive intermediates that are capable of alkylating and carbamoylating nucleophilic targets (Cheng et al., 1972). Alkylation reactions consist of chloroethylations and hydroxyethylations of DNA (Tong et al., 1982). Chloroethylation of 06-guanine with subsequent cross-link formation is considered to be the most important cytotoxic reaction (Lown et al., 1978) while hydroxyethyla- tion reactions are thought to be responsible for their mutagenic and carcinogenic effects (Pelfrene et al., 1976; Swenson et al., 1979). […] In the search for other types of compound that would chloroethylate DNA, a series of 2-haloethylsulphonates was synthesised (Shealy et al., 1983). […] Recently, the NCI has introduced a new disease-orientated screening programme based on the assessment of the in vitro cytotoxicity of a panel of cell lines representing the common clinical forms of human cancers using a colorimetric assay (Boyd, 1989). […] One reason for this discrepancy is that the in vitro tests ignore the potential role played by the pharmacokinetic behaviour and bioavailability of a drug in determining tumour responses in vivo. […] It has been used extensively as part of the pre-clinical evaluation of new anti-cancer agents within the Screening and Pharmacology Group of the EORTC (Bibby et al., 1988b). The feasibility of performing minimal toxicity studies in conjunction with anti-tumour studies has been described (Bibby et al., 1988b). […] Correspondence: A.M. Matthew. Received 6 December 1991; and in revised form 13 October 1992. Br. J. Cancer (1993), 67, 441-446 '?\" Macmillan Press Ltd., 1993 442 A.M. MATIHEW et al. ethylating agents with improved therapeutic indices. The assessment of stem cell survival has been recommended to study irreversible cytotoxic bone marrow injury (Schofield, 1986) and this can be performed readily in mice using a spleen colony forming unit assay. […] In vitro activity was assessed against a panel of established murine and human tumour cell lines while in vivo anti-tumour responses were evaluated against an ascitic tumour, MAC 15A, and two solid subcutaneous (sc) tumours, MAC 13 and MAC 26. MAC 13 is relatively nitrosourea-sensitive due to a low level of the repair enzyme 06-alkylguanine-DNA alkyltransferase while MAC 26 is relatively nitrosourea-resistant due to a high repair enzyme level (Lunn et al., 1989). In vivo bone marrow toxicity and pharmacokinetic studies and in vitro drug stability studies were performed in conjunction with the anti-tumour studies. […] Chlorozotocin was dissolved in 10% dimethylsulphoxide (DMSO)/arachis oil. Drug solutions were prepared at an appropriate concentration for the desired in vivo dose to be administered in 0.1 ml per 10 g body weight by intra- peritoneal (ip) or intravenous (iv) injection and for the desired final concentration in vitro to be achieved upon a 1 in 10 dilution. […] Chemosensitivity testing In vitro chemosensitivity was assessed using a modified micro-tetrazolium (MTT) assay (Twenty- man & Luscombe, 1987)."}, "WEHI-3B": {"test_system": "WEHI-3B", "test": "In vitro chemosensitivity, MTT assay", "format": "cell-based, murine", "conditions": "area under decay curve of the IC50 over the MTT assay", "protocol": "(§2) Br. J. Cancer (1993), 67, 441 446 t? […] Bibby Clinical Oncology Unit, University of Bradford, West Yorkshire, BD7 JDP, UK. […] In vivo anti-tumour activity was examined against three transplantable adenocarcinomas of the mouse colon and in vivo bone marrow toxicity was assessed using a spleen colony forming unit assay. The pharmacokinetic behaviour of the drug in vivo and drug stability in vitro was analysed by gas chromatography with electron capture detection. […] Clinical responses to cytotoxic agents have been largely restricted to the haematological malignancies while the majority of human solid tumours have remained refractory to chemotherapy (Marsoni et al., 1987). […] However, their clinical usefulness has been limited by non-selective host toxicity, particularly myelosuppres- sion. The chloroethylnitrosoureas decompose spontaneously in aqueous solution to generate reactive intermediates that are capable of alkylating and carbamoylating nucleophilic targets (Cheng et al., 1972). Alkylation reactions consist of chloroethylations and hydroxyethylations of DNA (Tong et al., 1982). Chloroethylation of 06-guanine with subsequent cross-link formation is considered to be the most important cytotoxic reaction (Lown et al., 1978) while hydroxyethyla- tion reactions are thought to be responsible for their mutagenic and carcinogenic effects (Pelfrene et al., 1976; Swenson et al., 1979). […] In the search for other types of compound that would chloroethylate DNA, a series of 2-haloethylsulphonates was synthesised (Shealy et al., 1983). […] Recently, the NCI has introduced a new disease-orientated screening programme based on the assessment of the in vitro cytotoxicity of a panel of cell lines representing the common clinical forms of human cancers using a colorimetric assay (Boyd, 1989). […] One reason for this discrepancy is that the in vitro tests ignore the potential role played by the pharmacokinetic behaviour and bioavailability of a drug in determining tumour responses in vivo. […] It has been used extensively as part of the pre-clinical evaluation of new anti-cancer agents within the Screening and Pharmacology Group of the EORTC (Bibby et al., 1988b). The feasibility of performing minimal toxicity studies in conjunction with anti-tumour studies has been described (Bibby et al., 1988b). […] Correspondence: A.M. Matthew. Received 6 December 1991; and in revised form 13 October 1992. Br. J. Cancer (1993), 67, 441-446 '?\" Macmillan Press Ltd., 1993 442 A.M. MATIHEW et al. ethylating agents with improved therapeutic indices. The assessment of stem cell survival has been recommended to study irreversible cytotoxic bone marrow injury (Schofield, 1986) and this can be performed readily in mice using a spleen colony forming unit assay. […] In vitro activity was assessed against a panel of established murine and human tumour cell lines while in vivo anti-tumour responses were evaluated against an ascitic tumour, MAC 15A, and two solid subcutaneous (sc) tumours, MAC 13 and MAC 26. MAC 13 is relatively nitrosourea-sensitive due to a low level of the repair enzyme 06-alkylguanine-DNA alkyltransferase while MAC 26 is relatively nitrosourea-resistant due to a high repair enzyme level (Lunn et al., 1989). […] Chemosensitivity testing In vitro chemosensitivity was assessed using a modified micro-tetrazolium (MTT) assay (Twenty- man & Luscombe, 1987)."}, "MAC 15A": {"test_system": "MAC 15A", "test": "In vitro chemosensitivity, MTT assay", "format": "cell-based, murine", "conditions": "area under decay curve of the IC50 over the MTT assay", "protocol": "as §2"}, "MAC 16": {"test_system": "MAC 16", "test": "In vitro chemosensitivity, MTT assay", "format": "cell-based, murine", "conditions": "area under decay curve of the IC50 over the MTT assay", "protocol": "as §2"}, "MAC 26": {"test_system": "MAC 26", "test": "In vitro chemosensitivity, MTT assay", "format": "cell-based, murine", "protocol": "as §2"}, "P388 leukaemia": {"test_system": "P388 leukaemia", "set-up": "method as in Shealy et al., 1984", "conditions": "ref Shealy et al., 1984; cited from earlier work"}, "[1]": {"test": "Pharmacokinetic study, plasma Clomesone by gas chromatography", "conditions": "50 mg kg-1 ip", "protocol": "as §1"}, "[2]": {"test": "Maximum tolerated dose, full dose range to the point of toxicity", "conditions": "ip, mice", "protocol": "Br. J. Cancer (1993), 67, 441 446 t? […] Bibby Clinical Oncology Unit, University of Bradford, West Yorkshire, BD7 JDP, UK. […] In vivo anti-tumour activity was examined against three transplantable adenocarcinomas of the mouse colon and in vivo bone marrow toxicity was assessed using a spleen colony forming unit assay. The pharmacokinetic behaviour of the drug in vivo and drug stability in vitro was analysed by gas chromatography with electron capture detection. […] Clinical responses to cytotoxic agents have been largely restricted to the haematological malignancies while the majority of human solid tumours have remained refractory to chemotherapy (Marsoni et al., 1987). […] However, their clinical usefulness has been limited by non-selective host toxicity, particularly myelosuppres- sion. The chloroethylnitrosoureas decompose spontaneously in aqueous solution to generate reactive intermediates that are capable of alkylating and carbamoylating nucleophilic targets (Cheng et al., 1972). Alkylation reactions consist of chloroethylations and hydroxyethylations of DNA (Tong et al., 1982). Chloroethylation of 06-guanine with subsequent cross-link formation is considered to be the most important cytotoxic reaction (Lown et al., 1978) while hydroxyethyla- tion reactions are thought to be responsible for their mutagenic and carcinogenic effects (Pelfrene et al., 1976; Swenson et al., 1979). […] The assessment of stem cell survival has been recommended to study irreversible cytotoxic bone marrow injury (Schofield, 1986) and this can be performed readily in mice using a spleen colony forming unit assay. […] In vitro activity was assessed against a panel of established murine and human tumour cell lines while in vivo anti-tumour responses were evaluated against an ascitic tumour, MAC 15A, and two solid subcutaneous (sc) tumours, MAC 13 and MAC 26. […] Chemosensitivity testing In vitro chemosensitivity was assessed using a modified micro-tetrazolium (MTT) assay (Twenty- man & Luscombe, 1987)."}, "[3]": {"set-up": "method as in Chan & Barrientos, 1988", "conditions": "previously reported; ref Chan & Barrientos, 1988; cited from earlier work"}, "bone marrow": {"test_system": "bone marrow", "conditions": "for Survival fraction: 24 h", "protocol": "as §1"}, "MAC 26 tumours": {"test_system": "MAC 26 tumours", "conditions": "MAC 26; 25 mg kg-1 ip", "protocol": "as §1"}}, "note": "Where “and” joins values, the source holds several entries; their conditions need not be identical. Equal entries are not always repeated. Where two headings read alike, the source gives them in different places."}
{"compound": "CS(=O)(=O)CS(=O)(=O)OCCCl", "note": "[Clomesone, 2-chloroethyl(methylsulphonyl)methanesulphonate]", "values": [{"measurement": "% Tumour weight inhibition", "setting": "MAC 13 tumours; 12.5 mg kg-1 ip", "value": 21.6, "unit": "%"}, {"measurement": "% Tumour weight inhibition", "setting": "MAC 13 tumours; 12.5 mg kg-1 iv", "value": 45.9, "unit": "%"}, {"measurement": "% Tumour weight inhibition", "setting": "MAC 13 tumours; 25 mg kg-1 ip", "value": 13.5, "unit": "%"}, {"measurement": "% Tumour weight inhibition", "setting": "MAC 13 tumours; 25 mg kg-1 iv", "value": 21.6, "unit": "%"}, {"measurement": "% Tumour weight inhibition", "setting": "MAC 13 tumours; 50 mg kg-1 iv", "value": 47.3, "unit": "%"}, {"measurement": "% Tumour weight inhibition", "setting": "MAC 13 tumours; 100 mg kg-1 ip, assessed 17 days later", "value": 48.3, "unit": "%"}, {"measurement": "c x t (concentration-time product)", "setting": "WEHI-3B", "value": 150, "unit": "fig h ml- '"}, {"measurement": "c x t (concentration-time product)", "setting": "MAC 15A", "value": 54, "unit": "fig h ml- '"}, {"measurement": "c x t (concentration-time product)", "setting": "MAC 16", "value": 177, "unit": "fig h ml- '"}, {"measurement": "IC50", "setting": "MAC 26; MTT, 4 days, one experiment only", "value": 35, "unit": "igm9l-'"}, {"measurement": "c x t (concentration-time product)", "setting": "MAC 26; area under decay curve of the IC50 over the MTT assay", "value": 185, "unit": "fig h ml- '"}, {"measurement": "Activity against P388 leukaemia in vivo (in words)", "setting": "P388 leukaemia", "value": "highly effective"}, {"measurement": "Time to peak plasma levels", "setting": "[1]", "value": "≤ 2", "unit": "min"}, {"measurement": "area under the plasma concentration versus time curve, mean value", "setting": "[1]", "value": "6.77 .ghmlh'"}, {"measurement": "areas under the plasma concentration versus time curves, range", "setting": "[1]", "value": "5.70-8.04 lagh ml-'"}, {"measurement": "Peak plasma levels, mean value", "setting": "[1]; female non-tumour bearing mice, three experiments", "value": 28.0, "unit": "ggmlh'"}, {"measurement": "mean terminal half-life", "setting": "[1]; plasma", "value": 8.1, "unit": "min"}, {"measurement": "terminal half-life, range", "setting": "[1]; plasma", "value": "4.8 to 10.8", "unit": "min"}, {"measurement": "Peak plasma levels, range", "setting": "[1]; three experiments", "value": "18.1-35.9 jigml-'"}, {"measurement": "Maximum tolerated dose", "setting": "[2]", "value": 100, "unit": "mg kg-'"}, {"measurement": "t1/2 in mouse plasma", "setting": "[3]", "value": 51, "unit": "min"}, {"measurement": "Survival fraction", "setting": "bone marrow; 25 mg kg-1 ip", "value": 0.80}, {"measurement": "Survival fraction", "setting": "bone marrow; 50 mg kg-1 ip", "value": 0.59}, {"measurement": "Survival fraction", "setting": "bone marrow; 100 mg kg-1 ip, colonies observed vs expected", "value": "0.20 and 0.16"}, {"measurement": "reduction in colony forming units", "setting": "bone marrow; maximum tolerated dose of 100 mg kg-1 ip", "value": 5, "unit": "fold"}, {"measurement": "Tumour growth delay", "setting": "MAC 26 tumours", "value": 0, "unit": "days"}]}
